Test results taken from patent US4100153A, “(D-Trp^5)-somatostatin and analogues thereof” (American Home Products Corporation, priority 1977, dated 1978).
Bridge positions count the residues as written; N and C are the ends. Square brackets hold non-standard residues; d marks the D form. Peptide text beside a SMILES is read from it.

How the values were obtained:
Type in all cases: in vivo
insulin = assay: Arginine-stimulated hormone secretion in Nembutal-treated rats, radioimmunoassay of insulin
Procedure: (§1) Albino male rats were administered Nembutal intraperitoneally at a dose of 50 milligrams per kilogram. Fifteen minutes later a subcutaneous injection of the test compound or physiological saline was administered. Ten minutes later 0.5 milliliters of arginine (300 milligrams per milliliter, pH 7.2) is injected into the heart. Five minutes after receipt of the arginine the rats are decapitated and blood is collected into trasylol-EDTA. An appropriate aliquot was assayed for growth hormone, insulin, and glucagon by radioimmunoassay.

glucagon = assay: Arginine-stimulated hormone secretion in Nembutal-treated rats, radioimmunoassay of glucagon
Procedure: as §1

growth hormone = assay: Arginine-stimulated hormone secretion in Nembutal-treated rats, radioimmunoassay of growth hormone
Procedure: as §1

growth hormone secretion = assay: Effect on growth hormone secretion over time in rats treated with Nembutal, plasma GH by radioimmunoassay; conditions: for Growth Hormone: dose 1,000 μg/kg
Procedure: (D-Trp^5, D-Trp^8)-Somatostatin was also tested for its effect on growth hormone secretion in rats treated with Nembutal after 1, 2, 4, 5, 6, and 8 hours. Blood samples were obtained by cardiac puncture and plasma separated for radio immunoassay of GH concentration.

## C[C@H](N)C(=O)NCC(=O)N[C@H]1CSSC[C@@H](C(=O)O)NC(=O)[C@H](CO)NC(=O)[C@H]([C@@H](C)O)NC(=O)[C@H](Cc2ccccc2)NC(=O)[C@H]([C@@H](C)O)NC(=O)[C@H](CCCCN)NC(=O)[C@@H](Cc2c[nH]c3ccccc23)NC(=O)[C@H](Cc2ccccc2)NC(=O)[C@H](Cc2ccccc2)NC(=O)[C@@H](Cc2c[nH]c3ccccc23)NC(=O)[C@H](CCCCN)NC1=O [(D-Trp^5, D-Trp^8)-Somatostatin, L-alanylglycyl-L-cysteinyl-L-lysyl-D-tryptophyl-L-phenylalanyl-L-phenylalanyl-D-tryptophyl-L-lysyl-L-threonyl-L-phenylalanyl-L-threonyl-L-seryl-L-cysteine cyclic (3→14)-disulfide, triacetate] (H-AGCK[dW]FF[dW]KTFTSC-OH; disulfide 3-14)
insulin; dose 10 μg/kg subcutaneous, control 348 ± 36
  Insulin: 183 ± 12 μU/ml
insulin; dose 100 μg/kg subcutaneous, control 348 ± 36
  Insulin: 105 ± 9 μU/ml
insulin; dose 1,000 μg/kg subcutaneous, control 314 ± 46
  Insulin: 33 ± 6 μU/ml
insulin; dose of 10 or 100 μg/kg
  Effect on secretion of insulin (in words): effective agent for reducing secretion of growth hormone and insulin
insulin; higher dose (1 mg/kg)
  Effect on release of insulin (in words): inhibited release of growth hormone, insulin
glucagon; dose 10 μg/kg subcutaneous, control 44 ± 8, marked * not significant
  Glucagon: 36 ± 5 pg/mL
glucagon; dose 100 μg/kg subcutaneous, control 44 ± 8, marked * not significant
  Glucagon: 31 ± 5 pg/mL
glucagon; dose 1,000 μg/kg subcutaneous, control 46 ± 7
  Glucagon: 17 ± 4 pg/mL
glucagon; dose of 10 or 100 μg/kg
  Effect on glucagon levels (in words): without materially affecting glucagon levels
glucagon; higher dose (1 mg/kg)
  Effect on release of glucagon (in words): inhibited release of growth hormone, insulin, and glucagon
Growth hormone; dose 10 μg/kg subcutaneous, control 133 ± 32
  GH: 40 ± 6 ng/mL
Growth hormone; dose 100 μg/kg subcutaneous, control 133 ± 32
  GH: 25 ± 5 ng/mL
Growth hormone; dose 1,000 μg/kg subcutaneous, blood 15 min after dosing, 5 min after arginine, control 259 ± 29
  GH: 52 ± 5 ng/mL
Growth hormone; dose of 10 or 100 μg/kg
  Effect on secretion of growth hormone (in words): effective agent for reducing secretion of growth hormone
Growth hormone; higher dose (1 mg/kg)
  Effect on release of growth hormone (in words): inhibited release of growth hormone
Growth hormone secretion; 1,000 μg/kg, 1 to 8 hours
  Duration of inhibition of growth-hormone release (in words): long-acting inhibition of growth-hormone release
Growth hormone secretion; time 1 hr, control 61 ± 14
  Growth Hormone: 5 ± 2 ng/mL
Growth hormone secretion; time 2 hrs, control 227 ± 44
  Growth Hormone: 16 ± 2 ng/mL
Growth hormone secretion; time 4 hrs, control 84 ± 13
  Growth Hormone: 32 ± 10 ng/mL
Growth hormone secretion; time 5 hrs, control 73 ± 11
  Growth Hormone: 16 ± 3 ng/mL
Growth hormone secretion; time 6 hrs, control 156 ± 42
  Growth Hormone: 22 ± 2 ng/mL
Growth hormone secretion; time 8 hrs, control 55 ± 22
  Growth Hormone: 31 ± 11 ng/mL
